Assay results reported in ChEMBL document CHEMBL1151424, “In vitro efficacy of new antifolates against trimethoprim-resistant Bacillus anthracis” (Antimicrob Agents Chemother, 2007).
Converted amounts (≈) assume the structure as drawn.

How the values were obtained:
Bacillus anthracis [1] = experiment: Antibacterial activity against Bacillus anthracis Sterne after 16 hrs by modified alamar blue microdilution broth assay; type: functional
Bacillus anthracis [2] = experiment: Inhibition of histidine-tagged Bacillus anthracis Sterne recombinant DHFR expressed in Escherichia coli BL21 Star (DE3)pLysS up to 3 mins; conditions: BL21, 0.05 h
Dihydrofolate reductase [3] = target: T1, Dihydrofolate reductase (Homo sapiens, UniProt P00374); experiment: Inhibition of human recombinant DHFR
T1 sequence (P00374 whole entry): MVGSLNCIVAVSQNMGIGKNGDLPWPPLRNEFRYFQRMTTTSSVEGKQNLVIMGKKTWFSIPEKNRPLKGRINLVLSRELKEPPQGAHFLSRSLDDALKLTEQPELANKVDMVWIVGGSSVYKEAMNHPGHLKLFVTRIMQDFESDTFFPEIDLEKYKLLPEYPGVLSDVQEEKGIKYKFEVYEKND

Bacillus cereus = experiment: Antibacterial activity against Bacillus cereus up to 10 hrs by growth inhibition assay; type: functional
[4] = Inhibition of Bacillus cereus recombinant DHFR expressed in Escherichia coli BL21(DE3) assessed as enzyme-dependent NADPH consumption
Dihydrofolate reductase [5] = target: T2, Dihydrofolate reductase (Rattus norvegicus, UniProt Q920D2); experiment: Inhibition of rat DHFR
T2 sequence (Q920D2 whole entry): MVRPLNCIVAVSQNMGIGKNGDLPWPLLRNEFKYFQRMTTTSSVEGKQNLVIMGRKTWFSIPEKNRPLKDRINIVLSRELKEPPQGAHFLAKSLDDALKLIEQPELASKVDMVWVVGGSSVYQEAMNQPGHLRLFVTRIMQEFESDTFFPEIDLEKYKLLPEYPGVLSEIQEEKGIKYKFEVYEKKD

Bacillus anthracis [6] = experiment: Antibacterial activity against Bacillus anthracis Ames (NR-411) after 16 hrs by modified alamar blue microdilution broth assay; type: functional; conditions: Ames NR-411, 16 h
[7] = Selectivity ratio of IC50 for human recombinant DHFR to IC50 for histidine-tagged Bacillus anthracis Sterne recombinant DHFR

Compound: COC(=O)C(C)(C)C1c2ccccc2C=NN1C(=O)/C=C/c1cc(Cc2cnc(N)nc2N)cc(OC)c1OC (configuration not stated)
- MIC (Bacillus anthracis [1]): ≤ 128 µg/mL
- IC50 (Bacillus anthracis [2]): 300 nM
- IC50 (Dihydrofolate reductase [3]): 813000 nM
- MIC50 (Bacillus cereus): 2.6 µg/mL (≈ 4.77 µM)
- IC50 [4]: 270 nM
- IC50 (Dihydrofolate reductase [5]): 25000 nM

Compound: COc1cc(Cc2cnc(N)nc2N)cc(/C=C/C(=O)N2N=Cc3ccccc3C2c2ccccc2CO)c1OC (configuration not stated)
- MIC (Bacillus anthracis [1]): > 128 µg/mL

Compound: COc1cc(Cc2cnc(N)nc2N)cc(/C=C/C(=O)N2N=Cc3ccccc3C2CCCO)c1OC (configuration not stated)
- MIC (Bacillus anthracis [1]): ≤ 64 µg/mL
- MIC (Bacillus anthracis [6]): > 102 µg/mL
- IC50 (Bacillus anthracis [2]): 120 nM
- IC50 (Dihydrofolate reductase [3]): > 25000 nM
- MIC50 (Bacillus cereus): 2.6 µg/mL (≈ 5.17 µM)
- IC50 [4]: 270 nM
- IC50 (Dihydrofolate reductase [5]): 25000 nM

Compound: COc1cc(Cc2cnc(N)nc2N)cc(/C=C/C(=O)N2N=Cc3ccccc3C2c2ccc(O)cc2)c1OC (configuration not stated)
- MIC (Bacillus anthracis [1]): > 128 µg/mL

Compound: COc1cc(Cc2cnc(N)nc2N)cc(/C=C/C(=O)N2N=Cc3ccccc3C2c2ccc(C)cc2)c1OC (configuration not stated)
- MIC (Bacillus anthracis [1]): ≤ 64 µg/mL
- MIC (Bacillus anthracis [6]): ≤ 51.2 µg/mL
- IC50 (Bacillus anthracis [2]): 150 nM
- IC50 (Dihydrofolate reductase [3]): > 19000 nM
- Ratio IC50 [7]: > 127
- MIC50 (Bacillus cereus): 2.6 µg/mL (≈ 4.86 µM)
- IC50 [4]: 270 nM
- IC50 (Dihydrofolate reductase [5]): 25000 nM

Compound: COc1cc(Cc2cnc(N)nc2N)cc(/C=C/C(=O)N2N=Cc3ccccc3C2c2ccccc2CN(C)C)c1OC (configuration not stated)
- MIC (Bacillus anthracis [1]): ≤ 128 µg/mL
- IC50 (Bacillus anthracis [2]): 400 nM
- IC50 (Dihydrofolate reductase [3]): > 42000 nM

Compound: COc1cc(Cc2cnc(N)nc2N)cc(/C=C/C(=O)N2N=Cc3ccccc3C2c2ccccc2)c1OC (configuration not stated)
- MIC (Bacillus anthracis [1]): ≤ 25.6 µg/mL
- MIC (Bacillus anthracis [6]): > 51.2 µg/mL
- IC50 (Bacillus anthracis [2]): 46 nM
- IC50 (Dihydrofolate reductase [3]): > 16000 nM
- Ratio IC50 [7]: > 348
- MIC50 (Bacillus cereus): 2.6 µg/mL (≈ 4.99 µM)
- IC50 [4]: 270 nM
- IC50 (Dihydrofolate reductase [5]): 25000 nM

Compound: COc1cc(Cc2cnc(N)nc2N)cc(/C=C/C(=O)N2N=Cc3ccccc3C2c2ccc(CO)cc2)c1OC (configuration not stated)
- MIC (Bacillus anthracis [1]): ≤ 128 µg/mL
- IC50 (Bacillus anthracis [2]): 97 nM
- IC50 (Dihydrofolate reductase [3]): > 23000 nM

Compound: COc1cc(Cc2cnc(N)nc2N)cc(OC)c1OC [TRIMETHOPRIM]
- MIC (Bacillus anthracis [1]): > 2050 µg/mL

Compound: COc1cc(Cc2cnc(N)nc2N)cc(/C=C/C(=O)N2N=Cc3ccccc3C2c2ccc(CO)cc2)c1C(OC)OC (configuration not stated)
- MIC (Bacillus anthracis [1]): > 128 µg/mL

Compound: COc1cc(Cc2cnc(N)nc2N)cc(/C=C/C(=O)N2N=Cc3ccccc3C2C2CCCCC2)c1OC (configuration not stated)
- MIC (Bacillus anthracis [1]): ≤ 12.8 µg/mL
- MIC (Bacillus anthracis [6]): ≤ 12.8 µg/mL
- IC50 (Bacillus anthracis [2]): 260 nM
- IC50 (Dihydrofolate reductase [3]): > 19000 nM
- MIC50 (Bacillus cereus): 2.6 µg/mL (≈ 4.94 µM)
- IC50 [4]: 270 nM
- IC50 (Dihydrofolate reductase [5]): 25000 nM

Compound: COc1cc(Cc2cnc(N)nc2N)cc(/C=C/C(=O)N2N=Cc3ccccc3C2c2ccc(CO)cc2)c1O (configuration not stated)
- MIC (Bacillus anthracis [1]): ≤ 128 µg/mL
- IC50 (Bacillus anthracis [2]): 69 nM
- IC50 (Dihydrofolate reductase [3]): > 24000 nM

Compound: COc1cc(Cc2cnc(N)nc2N)cc(CCC(=O)N2N=Cc3ccccc3C2C)c1OC (configuration not stated)
- MIC (Bacillus anthracis [1]): ≤ 64 µg/mL
- MIC (Bacillus anthracis [6]): ≤ 64 µg/mL
- IC50 (Bacillus anthracis [2]): 92 nM
- IC50 (Dihydrofolate reductase [3]): > 28000 nM
- IC50 [4]: 37000 nM

Compound: COc1cc(Cc2cnc(N)nc2N)cc(/C=C/C(=O)N2N=Cc3ccccc3C2c2ccc(O)cc2)c1C(OC)OC (configuration not stated)
- MIC (Bacillus anthracis [1]): > 128 µg/mL

Compound: CCCCC1c2ccccc2C=NN1C(=O)/C=C/c1cc(Cc2cnc(N)nc2N)cc(OC)c1OC (configuration not stated)
- MIC (Bacillus anthracis [1]): ≤ 12.8 µg/mL
- MIC (Bacillus anthracis [6]): ≤ 12.8 µg/mL
- IC50 (Bacillus anthracis [2]): 170 nM
- IC50 (Dihydrofolate reductase [3]): > 20000 nM
- Ratio IC50 [7]: > 118
- MIC50 (Bacillus cereus): 2.6 µg/mL (≈ 5.19 µM)
- IC50 [4]: 270 nM
- IC50 (Dihydrofolate reductase [5]): 25000 nM

Compound: CCC1c2ccccc2C=NN1C(=O)/C=C/c1cc(Cc2cnc(N)nc2N)cc(OC)c1OC (configuration not stated)
- MIC (Bacillus anthracis [1]): ≤ 32 µg/mL
- MIC (Bacillus anthracis [6]): ≤ 25.6 µg/mL
- IC50 (Bacillus anthracis [2]): 96 nM
- IC50 (Dihydrofolate reductase [3]): > 27000 nM
- Ratio IC50 [7]: > 281
- MIC50 (Bacillus cereus): 2.6 µg/mL (≈ 5.5 µM)
- IC50 [4]: 270 nM
- IC50 (Dihydrofolate reductase [5]): 25000 nM

Compound: COc1cc(Cc2cnc(N)nc2N)cc(/C=C/C(=O)N2Cc3ccccc3C=N2)c1OC
- MIC (Bacillus anthracis [1]): > 128 µg/mL
- IC50 [4]: 37000 nM

Compound: CCCC1c2ccccc2C=NN1C(=O)/C=C/c1cc(Cc2cnc(N)nc2N)cc(O)c1OC (configuration not stated)
- MIC (Bacillus anthracis [1]): ≤ 12.8 µg/mL
- MIC (Bacillus anthracis [6]): ≤ 16 µg/mL
- IC50 (Bacillus anthracis [2]): 54 nM
- IC50 (Dihydrofolate reductase [3]): 110000 nM
- Ratio IC50 [7]: 2040
- MIC50 (Bacillus cereus): 2.6 µg/mL (≈ 5.5 µM)
- IC50 [4]: 270 nM
- IC50 (Dihydrofolate reductase [5]): 25000 nM

Compound: COc1cc(Cc2cnc(N)nc2N)cc(/C=C/C(=O)N2N=Cc3ccccc3C2c2ccc(O)cc2)c1O (configuration not stated)
- MIC (Bacillus anthracis [1]): > 128 µg/mL

Compound: COc1ncc(C2c3ccccc3C=NN2C(=O)/C=C/c2cc(Cc3cnc(N)nc3N)cc(OC)c2OC)c(OC)n1 (configuration not stated)
- MIC (Bacillus anthracis [1]): ≤ 128 µg/mL
- IC50 (Bacillus anthracis [2]): 600 nM
- IC50 (Dihydrofolate reductase [3]): > 22000 nM

Compound: COc1cc(Cc2cnc(N)nc2N)cc(/C=C/C(=O)N2N=Cc3ccccc3C2C2CCCC2)c1OC (configuration not stated)
- MIC (Bacillus anthracis [1]): ≤ 25.6 µg/mL
- MIC (Bacillus anthracis [6]): ≤ 12.8 µg/mL
- IC50 (Bacillus anthracis [2]): 200 nM
- IC50 (Dihydrofolate reductase [3]): > 22000 nM
- Ratio IC50 [7]: > 110
- MIC50 (Bacillus cereus): 2.6 µg/mL (≈ 5.07 µM)
- IC50 [4]: 270 nM
- IC50 (Dihydrofolate reductase [5]): 25000 nM

Compound: COc1cc(Cc2cnc(N)nc2N)cc(/C=C/C(=O)N2N=Cc3ccccc3C2c2ccccc2)c1OCCN1CCOCC1 (configuration not stated)
- MIC (Bacillus anthracis [1]): ≤ 32 µg/mL
- MIC (Bacillus anthracis [6]): ≤ 25.6 µg/mL
- IC50 (Bacillus anthracis [2]): 170 nM
- IC50 (Dihydrofolate reductase [3]): > 21000 nM
